{"source": "patent US5656604A", "about": "“Peptide compound and its preparation” (Fujisawa Pharmaceutical Co., Ltd., priority 1990, dated 1997)", "test_system": "rabbit thoracic aorta contraction induced by endothelin", "description": "Thoracic aorta were isolated from freshly killed male albino rabbits (11 weeks old) and cut into 25 mm strips with the intima denuded. After removing fatty tissues, these arterial segments (2 mm width and 25 mm length) were suspended in 25 ml organ chambers filled with Krebs-Ringer solution (113 mM NaCl, 4.8 mM KCl, 2.2 mM CaCl2, 1.2 mM MgCl2, 25 mM NaHCO3, 1.2 mM KH2 PO4, 5.5 mM glucose) maintained at 37° C. and gassed with 95% O2 /5% CO2.\nA preload of 0.5 g was applied after the aorta had been conditioned by application of increasing concentration of KCl. Contractions were measured as an increase in isometric tension.\nTest Compound was tested against contractile response of rabbit aorta induced by endothelin (3.2×10^-9 M). […] Test Compound was added after the full contraction response induced by endothelin.", "data": [{"molecule": "CC(C)C[C@H](NC(=O)NC1CCCCC1)C(=O)N[C@H](Cc1cn(C)c2ccccc12)C(=O)N[C@H](Cc1ccccn1)C(=O)O", "note": "[A]", "values": [{"measurement": "IC50", "value": 230, "unit": "nM"}]}]}
